Data reported in US8604048B2, “Pyridocarbazole type compounds and applications thereof” (Centre National de la Recherche Scientifique, priority 2009, dated 2013).

Legend:
MES-SA cells = experiment: Cell growth test (MTT), MES-SA; type: cell-based; details: Homo sapiens, MTT test after 48 h, read-out: IC50 (concentration necessary to inhibit 50% of cell growth)
Experimental: The cell growth tests are carried out in transparent 96-well microplates (Greiner) after having seeded 100 μl/well of a cell solution having 2·10^5 cells/ml to 5·10^5 cells/ml (depending on the cell lines). After incubating for 24 h at 37° C. with 5% CO2, the culture medium is removed and replaced with solutions of the molecule to be tested at various concentrations. The cells are incubated with these molecules for an additional 48 h at 37° C. with 5% CO2. After elimination of the medium, the cells are washed with blank RPMI (Gibco, Invitrogen) then incubated with 3-(4,5-dimethylthiazol-2-yl)-2,5-diphenyltetrazolium bromide or MTT (0.5 mg/ml final concentration) for 4 h at 37° C. with 5% CO2. MTT (Sigma Aldrich) makes it possible to estimate the viability of the cells by measuring the activity of a mitochondrial enzyme. Indeed, in living cells, mitochondrial dehydrogenases are capable of cleaving the tetrazolium ring, thus leading to the formation of formazan crystals that are insoluble in an aqueous medium. These crystals are dissolved with the addition of a solubilizing solution (isopropanol, 10% Triton X100, 0.1 N HCl). After stirring, the absorbance is measured at 570 nm using the FLUOstar OPTIMA microplate reader. […]
The viability of the cells was evaluated using an MTT test after 48 h of exposure with various concentrations of molecules (from 100 μM to 0.001 μM). […]

recombinant human LIMK1 = target: T1, recombinant human LIMK1 (Homo sapiens, UniProt P53667); experiment: LIMK1 inhibition reversibility assay (size-exclusion chromatography); type: biochemical; details: 2 μM compound, input vs flow-through after size-exclusion chromatography
T1 construct: 6His (N); purchased Millipore 14-656
T1 sequence (P53667 whole entry): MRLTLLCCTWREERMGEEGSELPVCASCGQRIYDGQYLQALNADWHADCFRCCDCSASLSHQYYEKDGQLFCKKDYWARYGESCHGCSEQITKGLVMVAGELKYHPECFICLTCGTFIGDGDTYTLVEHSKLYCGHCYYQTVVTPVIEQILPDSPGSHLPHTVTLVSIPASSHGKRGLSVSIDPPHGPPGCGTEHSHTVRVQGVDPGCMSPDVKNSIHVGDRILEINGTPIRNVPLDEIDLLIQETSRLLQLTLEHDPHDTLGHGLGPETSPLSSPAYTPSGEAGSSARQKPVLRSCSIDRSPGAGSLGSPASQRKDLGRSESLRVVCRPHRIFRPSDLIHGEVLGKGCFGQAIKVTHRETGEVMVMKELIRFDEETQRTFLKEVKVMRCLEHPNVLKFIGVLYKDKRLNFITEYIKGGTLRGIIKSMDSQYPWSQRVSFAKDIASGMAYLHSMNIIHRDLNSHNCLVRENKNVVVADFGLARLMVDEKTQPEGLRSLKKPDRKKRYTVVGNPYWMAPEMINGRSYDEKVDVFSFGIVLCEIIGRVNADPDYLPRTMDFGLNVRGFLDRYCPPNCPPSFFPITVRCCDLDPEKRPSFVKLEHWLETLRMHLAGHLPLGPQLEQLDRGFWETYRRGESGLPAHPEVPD
Experimental: N-terminal 6H s-tagged recombinant human LIMK1 (Millipore #14-656, 62.5 ng) was incubated with […] Compound 1 (or equivalent amount of DMSO) for 10 minutes at 4° C. in a final volume of 100 μL. Size-exclusion chromatography of this mixture was then performed using 1 ml Biospin P-6 column (Biorad, equilibrated in 20 mM MOPS pH=7.0, 1 mM EDTA, 0.01% NP-40, 5% glycerol, 0.1% β-mercaptoethanol, 1 mg·ml^−1 Bovine Serum Albumin). LIMK1 kinase activity in input and flow-through were then assayed by radiometric LIMK1 kinase assay.
LIMK1 inhibition reversibility was assayed in vitro, in the conditions of Example 2, in the presence of 2 μM Compound 1 (H06), prior (‘input’) or after size-exclusion chromatography (‘flow-through’). Error bars represent standard error mean.

[1] = test system: microtubules of HeLa cells; experiment: Stability of microtubules at low temperature (4° C.); type: cell-based, Human; details: 2 h with compound then 30 minutes at 4° C.
Experimental: FIG. 3 represents the effect of the Compound 1 of the invention on the stability of microtubules at low temperature. The HeLa cells are incubated with paclitaxel or without, with the Compound 1 of the invention, for 2 h, then exposed for 30 minutes at 4° C. The amount of tubulin in the cells treated with the Compound 1 of the invention is measured with a microplate reader, then reported as a percentage of the amount of tubulin measured in the wells containing the cells treated with paclitaxel (100%);
In the living cell, microtubules are dynamic structures, which oscillate between assembling and disassembling phases. Various types of tests may be carried out in order to assess the stabilizing effect of the molecules on the microtubule network. Thus, the binding of paclitaxel to the microtubules, or the binding of stabilizing proteins such as STOP proteins (Bosc et al., 2003) may protect the microtubule network from a depolymerization induced by an incubation of the cells at 4° C. Furthermore, molecules capable of slowing down the dynamics of the microtubules may be identified by analyzing the resistance of cell microtubules to a depolymerization induced by nocodazole. In the absence of a stabilizing compound, the microtubules depolymerize in the presence of nocodazole (FIG. 2). […]

[2] = test system: Glu-tubulin signal in HeLa cells; experiment: Glu-tubulin dose-effect, immunofluorescence in microplates; type: cell-based, Human; details: 2 h, highest concentrations
Experimental: HeLa cells are seeded in black-bottomed black 96-well microplates (Greiner 655086) by distributing 90 μl per well of a cell solution containing 40 000 cells/ml, and incubated at 37° C. with 5% CO2. 24 h later, the cells are incubated with the molecules to be tested for 2 h at 37° C. with 5% CO2. The cells are then permeabilized with warm OPT buffer for 6 minutes at 37° C. then fixed in methanol for 10 minutes at room temperature. The cells are rinsed twice with PBS/0.1% Tween® 20 and incubated with the primary antibodies YL1/2 and L4 (cf. the antibodies from Table III) diluted to 1/4000 in a solution of PBS/0.3% BSA/0.02% NaN3 overnight at 37° C. […] The various fluorescence intensities are measured using the FLUOstar OPTIMA reader. […]
A dose-effect curve measuring the variation of the amount of Glu-tubulin was produced for Compound 1 of the invention. […] The fluorescence intensity was then measured using the microplate reader.
The percentage of the signal measured represents its distance relative to the control of bioactivity (paclitaxel (Taxol®)) and to the control of bioinactivity (DMSO). The EC50 was determined using KaleidaGraph® 3.60 software.

For `Cc1c2cc[nH]c(=O)c2c(C)c2c1[nH]c1ccc(OC(=O)c3ccccc3)cc12` [Compound 1, 9-benzoyloxy-5,11-dimethyl-2H,6H-pyrido[4,3-b]carbazol-1-one], the IC50 (MES-SA cells) was 26 µM, the “Reversibility of LIMK1 inhibition in vitro” value (recombinant human LIMK1) was “reversible” and the “Protection of microtubules from cold-induced depolymerization” value [1] was “not able to protect the microtubules”. For the same molecule, the “Increase in the Glu signal relative to paclitaxel” value [2] was “slightly smaller than that of paclitaxel”.
